Assay results reported in patent publication US11547683B2, “Therapeutic compounds, formulations, and uses thereof” (Tvardi Therapeutics, Inc., priority 2020, dated 2023).

Test: Studies on oxidation of the compound of Formula (I)
Assay type: physicochemical
Protocol: Stability was analyzed using a variety of antioxidants. A bulk formulation containing Kolliphor® RH 40, PEG600, Polysorbate 80, Labrasol®, and Transcutol® HP (45:15:10:20:10 by weight) was prepared with a compound of Formula (I) concentration of 60 mg/g. Antioxidants, including Vitamin E (0.05 wt %), ascorbyl palmitate (0.05 wt %), butylated hydroxytoluene (0.005 wt %), and triethyl citrate (0.7 wt %) were dissolved/dispersed in the bulk formulation, respectively. The resulting samples were placed at room temperature in glass vials and protected from light. The samples were monitored for purity by HPLC at 0, 3, and 8 weeks.

COc1ccc(S(=O)(=O)Nc2cc(-c3c(O)ccc4ccccc34)c(O)c3ccccc23)cc1 [Compound of Formula (I)]
susceptibility to oxidation: susceptible to oxidation
